For the assay, the system named is BDF1 mice, M5076 sarcoma s.c., survival/tumor T/C. Description: NCI In Vivo Anticancer Drug Screen. Data for tumor model Sarcoma M5076 (subcutaneous) in B6D2F1 (BDF1) mice. The method, then: The antitumor activity of compounds was measured in mice bearing transplantable tumors. Survival or tumor size were measured and the results are expressed as the measurement made in the treated group (T) divided by the measurement made in the vehicle treated control group (C). The tumor model used in this assay is Sarcoma M5076 (subcutaneous) in B6D2F1 (BDF1) mice

[1] abbreviates: endpoint: median survival time, dose: 50.0 mg/kg/injection, schedule: Q01DX009 (ip), vehicle: saline with Tween-80, higher = longer survival.
[2] abbreviates: endpoint: median survival time, dose: 100.0 mg/kg/injection, schedule: Q01DX009 (ip), vehicle: saline with Tween-80, higher = longer survival.
The mark [3] stands for this setting: endpoint: median survival time, dose: 200.0 mg/kg/injection, schedule: Q01DX009 (ip), vehicle: saline with Tween-80, higher = longer survival.
Setting [4] is: endpoint: median tumor weight (est.), dose: 50.0 mg/kg/injection, schedule: Q01DX009 (ip), vehicle: saline with Tween-80, higher = larger tumour.
Where [5] appears, read: endpoint: median tumor weight (est.), dose: 100.0 mg/kg/injection, schedule: Q01DX009 (ip), vehicle: saline with Tween-80, higher = larger tumour.

Several values for one entry are separate records, joined by “and”; a condition that tells them apart may be missing. Equal entries are not always repeated. Records with an inconclusive call do not appear.

As to `O=C1N[C@H]2[C@H](O)[C@H](O)[C@@H](O)[C@H](O)[C@@H]2c2cc3c(c(O)c21)OCO3`, the T/C is, setting by setting: (endpoint: median survival time, dose: 0.38 mg/kg/injection, schedule: Q01DX009 (ip), vehicle: saline + alcohol, higher = longer survival) 101 % of control; (endpoint: median survival time, dose: 0.75 mg/kg/injection, schedule: Q01DX009 (ip), vehicle: saline + Tween-80 + alcohol, higher = longer survival) 106 % of control; (endpoint: median survival time, dose: 0.75 mg/kg/injection, schedule: Q01DX009 (ip), vehicle: saline + alcohol, higher = longer survival) 89 % of control; (endpoint: median survival time, dose: 1.5 mg/kg/injection, schedule: Q01DX009 (ip), vehicle: saline + Tween-80 + alcohol, higher = longer survival) 111 % of control; (endpoint: median survival time, dose: 1.5 mg/kg/injection, schedule: Q01DX009 (ip), vehicle: saline + alcohol, higher = longer survival) 94 % of control; (endpoint: median survival time, dose: 3.0 mg/kg/injection, schedule: Q01DX009 (ip), vehicle: saline + alcohol, higher = longer survival) 120 % of control. Also, the T/C runs as follows: (endpoint: median tumor weight (est.), dose: 0.38 mg/kg/injection, schedule: Q01DX009 (ip), vehicle: saline + alcohol, higher = larger tumour) 103 % of control; (endpoint: median tumor weight (est.), dose: 0.75 mg/kg/injection, schedule: Q01DX009 (ip), vehicle: saline + Tween-80 + alcohol, higher = larger tumour) 80 % of control; (endpoint: median tumor weight (est.), dose: 0.75 mg/kg/injection, schedule: Q01DX009 (ip), vehicle: saline + alcohol, higher = larger tumour) 96 % of control; (endpoint: median tumor weight (est.), dose: 1.5 mg/kg/injection, schedule: Q01DX009 (ip), vehicle: saline + Tween-80 + alcohol, higher = larger tumour) 49 % of control; (endpoint: median tumor weight (est.), dose: 1.5 mg/kg/injection, schedule: Q01DX009 (ip), vehicle: saline + alcohol, higher = larger tumour) 64 % of control; (endpoint: median tumor weight (est.), dose: 3.0 mg/kg/injection, schedule: Q01DX009 (ip), vehicle: saline + Tween-80 + alcohol, higher = larger tumour) 2 % of control. For the same compound, the T/C was 27 % of control (endpoint: median tumor weight (est.), dose: 3.0 mg/kg/injection, schedule: Q01DX009 (ip), vehicle: saline + alcohol, higher = larger tumour) and 3 % of control (endpoint: median tumor weight (est.), dose: 6.0 mg/kg/injection, schedule: Q01DX009 (ip), vehicle: saline + alcohol, higher = larger tumour).

On to `O=C1/C(=C/c2cccc([N+](=O)[O-])c2)SC(=S)N1C1CC1`, for which the T/C is 94 % of control under setting [1]; 94 % of control under setting [2]; 89 % of control under setting [3]; 100 % of control under setting [4]; 97 % of control under setting [5].

Regarding `CCCNC(=O)ON1C(=O)C2C3C=CC(C3)C2C1=O` (configuration not stated), the T/C is 98 % of control (endpoint: median survival time, dose: 3.12 mg/kg/injection, schedule: Q01DX009 (ip), vehicle: saline with Tween-80, higher = longer survival); 95 % of control (endpoint: median survival time, dose: 6.25 mg/kg/injection, schedule: Q01DX009 (ip), vehicle: saline with Tween-80, higher = longer survival); 103 % of control (endpoint: median survival time, dose: 12.5 mg/kg/injection, schedule: Q01DX009 (ip), vehicle: saline with Tween-80, higher = longer survival); 93 % of control (endpoint: median tumor weight (est.), dose: 3.12 mg/kg/injection, schedule: Q01DX009 (ip), vehicle: saline with Tween-80, higher = larger tumour); 107 % of control (endpoint: median tumor weight (est.), dose: 6.25 mg/kg/injection, schedule: Q01DX009 (ip), vehicle: saline with Tween-80, higher = larger tumour).

Consider `S=c1nc[nH]c2nc[nH]c12`, for which the T/C (endpoint: median survival time, dose: 12.5 mg/kg/injection, schedule: Q04DX006 (ip), vehicle: saline with Tween-80, higher = longer survival) is 99 % of control; the T/C (endpoint: median survival time, dose: 25.0 mg/kg/injection, schedule: Q04DX006 (ip), vehicle: saline with Tween-80, higher = longer survival) is 111 % of control; the T/C (endpoint: median survival time, dose: 50.0 mg/kg/injection, schedule: Q02DX033 (ip), vehicle: saline with Tween-80, higher = longer survival) is 107 % of control; the T/C (endpoint: median survival time, dose: 50.0 mg/kg/injection, schedule: Q04DX006 (ip), vehicle: saline with Tween-80, higher = longer survival) is 105 % of control; the T/C (endpoint: median survival time, dose: 100.0 mg/kg/injection, schedule: Q04DX006 (ip), vehicle: saline with Tween-80, higher = longer survival) is 111 % of control.

On to `CCCCCCCCCCCCCCCc1ccc(O)cc1O`, for which the T/C is 119 % of control (endpoint: median survival time, dose: 25.0 mg/kg/injection, schedule: Q02DX030 (ip), vehicle: saline with Tween-80, higher = longer survival) and 111 % of control (endpoint: median survival time, dose: 50.0 mg/kg/injection, schedule: Q02DX030 (ip), vehicle: saline with Tween-80, higher = longer survival).

For `O=c1[nH]cc(F)c(=O)[nH]1`, the T/C was 105 % of control (endpoint: median survival time, dose: 6.25 mg/kg/injection, schedule: Q04DX006 (ip), vehicle: saline, higher = longer survival); 101 % of control (endpoint: median survival time, dose: 12.5 mg/kg/injection, schedule: Q02DX033 (ip), vehicle: saline, higher = longer survival); 100 % of control (endpoint: median survival time, dose: 12.5 mg/kg/injection, schedule: Q04DX006 (ip), vehicle: saline, higher = longer survival); 105 % of control (endpoint: median survival time, dose: 25.0 mg/kg/injection, schedule: Q02DX033 (ip), vehicle: saline, higher = longer survival); 108 % of control (endpoint: median survival time, dose: 25.0 mg/kg/injection, schedule: Q04DX006 (ip), vehicle: saline, higher = longer survival); 105 % of control (endpoint: median survival time, dose: 50.0 mg/kg/injection, schedule: Q04DX006 (ip), vehicle: saline, higher = longer survival).

For the compound `CCOC(=O)C(CC(C)C)NC(=O)C(Cc1ccc(N(CCCl)CCCl)cc1)NC(C)=O` (configuration not stated), the T/C is 111 % of control (endpoint: median survival time, dose: 8.0 mg/kg/injection, schedule: Q01DX009 (ip), vehicle: saline with Tween-80, higher = longer survival); 117 % of control and 122 % of control (endpoint: median survival time, dose: 16.0 mg/kg/injection, schedule: Q01DX009 (ip), vehicle: saline with Tween-80, higher = longer survival); 170 % of control (endpoint: median survival time, dose: 64.0 mg/kg/injection, schedule: Q01DX009 (ip), vehicle: saline with Tween-80, higher = longer survival); 61 % of control (endpoint: median tumor weight (est.), dose: 8.0 mg/kg/injection, schedule: Q01DX009 (ip), vehicle: saline with Tween-80, higher = larger tumour); 52 % of control (endpoint: median tumor weight (est.), dose: 16.0 mg/kg/injection, schedule: Q01DX009 (ip), vehicle: saline with Tween-80, higher = larger tumour); 16 % of control (endpoint: median tumor weight (est.), dose: 32.0 mg/kg/injection, schedule: Q01DX009 (ip), vehicle: saline with Tween-80, higher = larger tumour).

Take `CCCCOc1ccc(-n2c(=O)[nH]c3ccccc3c2=O)cc1`: the T/C under setting [1] is 101 % of control; the T/C under setting [2] was 94 % of control; the T/C under setting [3] is 101 % of control; the T/C under setting [4] was 97 % of control; the T/C under setting [5] is 100 % of control; the T/C (endpoint: median tumor weight (est.), dose: 200.0 mg/kg/injection, schedule: Q01DX009 (ip), vehicle: saline with Tween-80, higher = larger tumour) was 105 % of control.

`CN(C)CCCNc1c2ccccc2nc2cccc([N+](=O)[O-])c12`: the T/C is, setting by setting: (endpoint: mean tumor weight, dose: 2.0 micrograms/kg/injection, schedule: Q02DX011 (ip), vehicle: saline, higher = larger tumour) 106 % of control; (endpoint: mean tumor weight, dose: 4.0 micrograms/kg/injection, schedule: Q02DX011 (ip), vehicle: saline, higher = larger tumour) 70 % of control; (endpoint: mean tumor weight, dose: 8.0 micrograms/kg/injection, schedule: Q02DX011 (ip), vehicle: saline, higher = larger tumour) 97 % of control; (endpoint: mean tumor weight, dose: 16.0 micrograms/kg/injection, schedule: Q02DX011 (ip), vehicle: saline, higher = larger tumour) 92 % of control; (endpoint: mean tumor weight, dose: 32.0 micrograms/kg/injection, schedule: Q02DX011 (ip), vehicle: saline, higher = larger tumour) 88 % of control; (endpoint: mean tumor weight, dose: 64.0 micrograms/kg/injection, schedule: Q02DX011 (ip), vehicle: saline, higher = larger tumour) 65 % of control. Further, the T/C reads like this: (endpoint: median tumor weight (est.), dose: 2.0 micrograms/kg/injection, schedule: Q02DX011 (ip), vehicle: saline, higher = larger tumour) 112 % of control; (endpoint: median tumor weight (est.), dose: 4.0 micrograms/kg/injection, schedule: Q02DX011 (ip), vehicle: saline, higher = larger tumour) 90 % of control; (endpoint: median tumor weight (est.), dose: 8.0 micrograms/kg/injection, schedule: Q02DX011 (ip), vehicle: saline, higher = larger tumour) 95 % of control; (endpoint: median tumor weight (est.), dose: 32.0 micrograms/kg/injection, schedule: Q02DX011 (ip), vehicle: saline, higher = larger tumour) 100 % of control; (endpoint: median tumor weight (est.), dose: 64.0 micrograms/kg/injection, schedule: Q02DX011 (ip), vehicle: saline, higher = larger tumour) 62 % of control.

Regarding `O=C(O)c1c(CS(F)(F)(F)(F)F)cc(=O)oc1CS(F)(F)(F)(F)F`, the T/C under setting [1] is 98 % of control.

Turning to `COC1CC2C=C(C)/C=C/C=C/C(=O)NC(c3ccccc3)C/C=C/CCC(O)CC(=O)C2=C1O` (configuration not stated), the T/C is, setting by setting: (endpoint: median survival time, dose: 1.0 mg/kg/injection, schedule: Q01DX009 (ip), vehicle: Klucel (hydroxypropylcellulose) (HPC), higher = longer survival) 100 % of control; (endpoint: median survival time, dose: 2.0 mg/kg/injection, schedule: Q01DX009 (ip), vehicle: Klucel (hydroxypropylcellulose) (HPC), higher = longer survival) 100 % of control; (endpoint: median survival time, dose: 4.0 mg/kg/injection, schedule: Q01DX009 (ip), vehicle: Klucel (hydroxypropylcellulose) (HPC), higher = longer survival) 100 % of control; (endpoint: median tumor weight (est.), dose: 1.0 mg/kg/injection, schedule: Q01DX009 (ip), vehicle: Klucel (hydroxypropylcellulose) (HPC), higher = larger tumour) 77 % of control; (endpoint: median tumor weight (est.), dose: 2.0 mg/kg/injection, schedule: Q01DX009 (ip), vehicle: Klucel (hydroxypropylcellulose) (HPC), higher = larger tumour) 109 % of control; (endpoint: median tumor weight (est.), dose: 4.0 mg/kg/injection, schedule: Q01DX009 (ip), vehicle: Klucel (hydroxypropylcellulose) (HPC), higher = larger tumour) 82 % of control.

The values above are taken from PubChem BioAssay AID288 (DTP/NCI, 2004).
